Results taken from ChEMBL document CHEMBL1201862, “PubChem BioAssay data set” (2004).
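1) Cells in 96-well plates. 2) Compound, 48 h, 5 concentrations. 3) Linear interpolation between surrounding doses. 4) Unreached endpoint = highest concentration. Here, GI50 denotes the concentration required for 50% inhibition of growth.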 Active and inactive are the calls of the source. No stated cut-off is given here; in the data, active = GI50 up to about 1.1 µM and inactive = higher.

How the values were obtained:
Test in all cases: NCI anticancer screen, dose series, 48 h
HL-60 = tested on: HL-60
HT-29 = tested on: HT-29
NCI-H522 = tested on: NCI-H522
HOP-62 = tested on: HOP-62
A549 = tested on: A549
HCT-15 = tested on: HCT-15
HCC 2998 = tested on: HCC 2998
OVCAR-4 = tested on: OVCAR-4
COLO 205 = tested on: COLO 205
EKVX = tested on: EKVX
786-0 = tested on: 786-0
RPMI-8226 = tested on: RPMI-8226
HCT-116 = tested on: HCT-116
UACC-257 = tested on: UACC-257
SK-MEL-28 = tested on: SK-MEL-28

Structure (SMILES) | GI50 (HL-60) | GI50 (HT-29) | GI50 (NCI-H522) | GI50 (HOP-62) | GI50 (A549) | GI50 (HCT-15) [µM] | GI50 (HCC 2998) | GI50 (OVCAR-4) | GI50 (COLO 205) | GI50 (EKVX) | GI50 (786-0) | GI50 (RPMI-8226) | GI50 (HCT-116) | GI50 (UACC-257) | GI50 (SK-MEL-28)
O=C(CCc1cc(-c2ccccc2)nc(S)n1)N(Cc1ccccc1)Cc1ccccc1 | > 100 µM (inactive) | > 100 µM (inactive) | > 100 µM (inactive) | > 100 µM (inactive) | > 100 µM (inactive) | > 100 | > 100 µM (inactive) | > 100 µM (inactive) | > 100 µM (inactive) | > 100 µM (inactive) | > 100 µM (inactive) | > 100 µM (inactive) | > 100 µM (inactive) | > 100 µM (inactive) | 
O/N=C\C(=N/O)Nc1ccc(Cc2ccc(NC(/C=N\O)=N/O)cc2)cc1 | 22.5 µM (inactive) | 60.5 µM (inactive) | 29.6 µM (inactive) | 27.4 µM (inactive) | 87.5 µM (inactive) | 75.3 | 83.9 µM (inactive) | 57.9 µM (inactive) | 54.7 µM (inactive) | 25.4 µM (inactive) | 58.6 µM (inactive) | 30.5 µM (inactive) | 79.4 µM (inactive) | 56.1 µM (inactive) | > 100 µM (inactive)
COC(=O)/C(=N/Nc1cccc(Cl)c1)C(C(=O)C(=O)Nc1cccc(Cl)c1C)c1nc2ccccc2nc1C (centres undefined) | 29.6 µM (inactive) | > 100 µM (inactive) | > 100 µM (inactive) | 38.3 µM (inactive) | 63.7 µM (inactive) |  | 43.8 µM (inactive) | 68.5 µM (inactive) | > 100 µM (inactive) | > 100 µM (inactive) | > 100 µM (inactive) | 88.5 µM (inactive) | 62.5 µM (inactive) | > 100 µM (inactive) | 92.3 µM (inactive)
COC1CC(OS(=O)(=O)c2ccc([N+](=O)[O-])cc2)C(OC(=O)c2ccccc2)C(C)O1 (centres undefined) | > 100 µM (inactive) | > 100 µM (inactive) | > 100 µM (inactive) | > 100 µM (inactive) | > 100 µM (inactive) | > 100 | > 100 µM (inactive) | 49.9 µM (inactive) | > 100 µM (inactive) |  | 32.2 µM (inactive) | > 100 µM (inactive) | > 100 µM (inactive) | > 100 µM (inactive) | > 100 µM (inactive)
NCCn1ccc(NC(c2ccccc2)(c2ccccc2)c2ccccc2)nc1=O | 17.7 µM (inactive) | 16.9 µM (inactive) | 18.1 µM (inactive) | 30.1 µM (inactive) | 25.2 µM (inactive) | > 100 | 18 µM (inactive) | 36.3 µM (inactive) | 29.8 µM (inactive) | 21.3 µM (inactive) | 17.3 µM (inactive) | 18.6 µM (inactive) | 18.2 µM (inactive) | 19.5 µM (inactive) | 20.2 µM (inactive)
CCOC(=O)c1cccnc1C(OC(C)=O)OC(C)=O | 49.9 µM (inactive) | > 100 µM (inactive) | > 100 µM (inactive) | > 100 µM (inactive) | > 100 µM (inactive) | > 100 | > 100 µM (inactive) | > 100 µM (inactive) | > 100 µM (inactive) | > 100 µM (inactive) | > 100 µM (inactive) |  | > 100 µM (inactive) | > 100 µM (inactive) | > 100 µM (inactive)
CCCOP1(=O)C=C(O)C(Cl)=C(C)C1 (centres undefined) | > 100 µM (inactive) | > 100 µM (inactive) | > 100 µM (inactive) | > 100 µM (inactive) | > 100 µM (inactive) | > 100 | > 100 µM (inactive) | > 100 µM (inactive) | > 100 µM (inactive) | > 100 µM (inactive) | > 100 µM (inactive) |  | > 100 µM (inactive) | > 100 µM (inactive) | > 100 µM (inactive)
COc1ccc(/C=N/NC(=O)CSc2nc(-c3ccccc3)c(-c3ccccc3)[nH]2)cc1OC | 20.3 µM (inactive) | 29.8 µM (inactive) | 19.7 µM (inactive) | 39.3 µM (inactive) | 45.9 µM (inactive) | 26.9 |  | 31.3 µM (inactive) | 21.2 µM (inactive) | 31 µM (inactive) | 28.7 µM (inactive) | 20.3 µM (inactive) | 34.5 µM (inactive) | 27.1 µM (inactive) | 41 µM (inactive)
O=C1CCC(=O)C(C(=O)CCC(=O)Nc2cccc(Cl)c2)C1 (centres undefined) | > 100 µM (inactive) | > 100 µM (inactive) | > 100 µM (inactive) | > 100 µM (inactive) | > 100 µM (inactive) | > 100 | > 100 µM (inactive) |  | > 100 µM (inactive) | > 100 µM (inactive) | > 100 µM (inactive) | > 100 µM (inactive) | > 100 µM (inactive) | > 100 µM (inactive) | 
COC(=O)CSc1nnc(-c2ccccc2)[nH]1 | > 100 µM (inactive) | > 100 µM (inactive) | > 100 µM (inactive) | > 100 µM (inactive) | > 100 µM (inactive) | > 100 |  | > 100 µM (inactive) | > 100 µM (inactive) | > 100 µM (inactive) | > 100 µM (inactive) | > 100 µM (inactive) | > 100 µM (inactive) | > 100 µM (inactive) | > 100 µM (inactive)
COc1ccc(C2S/C(=C\c3ccccc3O)C(=O)N2NC(=O)Cc2ccccc2)cc1 (centres undefined) | 60.5 µM (inactive) | > 100 µM (inactive) | > 100 µM (inactive) | > 100 µM (inactive) | 98.6 µM (inactive) | > 100 |  | > 100 µM (inactive) | > 100 µM (inactive) |  | > 100 µM (inactive) | 48.5 µM (inactive) | 38.2 µM (inactive) | > 100 µM (inactive) | 40.3 µM (inactive)
COC(=O)C(CC(=O)Nc1ccc(Cl)c(Cl)c1)C(=O)C(=O)NC1C2CC3CC(C2)CC1C3 (centres undefined) | > 100 µM (inactive) | > 100 µM (inactive) | > 100 µM (inactive) | > 100 µM (inactive) | > 100 µM (inactive) | > 100 | > 100 µM (inactive) | > 100 µM (inactive) | > 100 µM (inactive) | 54.6 µM (inactive) | > 100 µM (inactive) | > 100 µM (inactive) | > 100 µM (inactive) | > 100 µM (inactive) | > 100 µM (inactive)
COc1ccc(C2NC3=C(CCCC3)N2)cc1 | 29 µM (inactive) | 42.9 µM (inactive) | 40.2 µM (inactive) | > 100 µM (inactive) | > 100 µM (inactive) | 44.8 | > 100 µM (inactive) | > 100 µM (inactive) | 34 µM (inactive) |  | 41.1 µM (inactive) | > 100 µM (inactive) | 64.9 µM (inactive) | > 100 µM (inactive) | > 100 µM (inactive)
O=C1C(=O)N(c2ccc(Cl)cc2)C(=O)/C(=N/c2cccc3c(=O)[nH][nH]c(=O)c23)C1c1nc2ccccc2o1 (centres undefined) | > 100 µM (inactive) | > 100 µM (inactive) |  | > 100 µM (inactive) | > 100 µM (inactive) | > 100 | > 100 µM (inactive) | > 100 µM (inactive) | > 100 µM (inactive) | > 100 µM (inactive) | > 100 µM (inactive) | > 100 µM (inactive) | > 100 µM (inactive) | > 100 µM (inactive) | > 100 µM (inactive)
COC(=O)/C(=C/c1ccc(OC)cc1)C(C(=O)O)=C(C)C | > 100 µM (inactive) | > 100 µM (inactive) | > 100 µM (inactive) | > 100 µM (inactive) | > 100 µM (inactive) | > 100 | > 100 µM (inactive) |  | > 100 µM (inactive) | > 100 µM (inactive) | > 100 µM (inactive) | > 100 µM (inactive) | > 100 µM (inactive) | > 100 µM (inactive) | > 100 µM (inactive)
CC1OC(OCC2OC(Oc3c(-c4ccc(O)cc4)oc4cc(O)cc(O)c4c3=O)C(OC3OCC(O)(CO)C3O)C(O)C2O)C(O)C(O)C1O (centres undefined) | 21.2 µM (inactive) | > 100 µM (inactive) | > 100 µM (inactive) | > 100 µM (inactive) | > 100 µM (inactive) | 22.1 | > 100 µM (inactive) | > 100 µM (inactive) | 38.1 µM (inactive) | > 100 µM (inactive) | 90.8 µM (inactive) | > 100 µM (inactive) | 31.2 µM (inactive) | > 100 µM (inactive) | > 100 µM (inactive)
CCOC(=O)c1oc2c(OC)ccc3c2c1CCC3 | > 100 µM (inactive) | 37.7 µM (inactive) | > 100 µM (inactive) | > 100 µM (inactive) | > 100 µM (inactive) | > 100 | > 100 µM (inactive) | > 100 µM (inactive) | > 100 µM (inactive) | > 100 µM (inactive) | > 100 µM (inactive) | > 100 µM (inactive) |  | 0.404 µM (active) | > 100 µM (inactive)
CCOC(=O)C1S/C(=N\c2ccccc2)N=C1C (centres undefined) | 59.6 µM (inactive) | 30.3 µM (inactive) | 44.7 µM (inactive) | > 100 µM (inactive) | 55.5 µM (inactive) | 55.5 | > 100 µM (inactive) | 68.7 µM (inactive) | > 100 µM (inactive) | 64.1 µM (inactive) | 77.8 µM (inactive) | 51.2 µM (inactive) | > 100 µM (inactive) | > 100 µM (inactive) | > 100 µM (inactive)
NC(C(=O)O)c1ccc(C(=O)O)cc1 (centres undefined) | > 100 µM (inactive) | > 100 µM (inactive) | > 100 µM (inactive) | > 100 µM (inactive) | > 100 µM (inactive) | > 100 | > 100 µM (inactive) | > 100 µM (inactive) | > 100 µM (inactive) | > 100 µM (inactive) | > 100 µM (inactive) | > 100 µM (inactive) |  | > 100 µM (inactive) | > 100 µM (inactive)
